From patent publication US11207299B2, “Biphenyl sulfonamide compounds for the treatment of type IV collagen diseases” (Travere Therapeutics, Inc., priority 2018, dated 2021)
“Also recorded” adds a separate entry of the source.

How the values were obtained:
Assay type in all cases: in vivo, mouse
[1] = test system: autosomal Alport mice (COL4A3^−/−); assay: Late intervention study in Alport mice (treated from 5-7 weeks of age)
Excerpt: (§1) Vehicle or sparsentan was given daily by oral gavage to autosomal Alport mice (COL4A3^−/−) on the 129/Sv background (male and female) in five separate studies: a pilot study, an early intervention study (treated from 3-7 weeks of age), a late intervention study (treated from 5-7 weeks of age after the onset of glomerular (GM) changes), a lifespan study, and a hearing study (FIG. 1). The early intervention, late intervention, lifespan, and hearing studies also included mice treated with a comparator, losartan, which was given orally at 3-4 weeks of age in the early intervention study, in drinking water at 4-7 weeks of age in the early intervention study, and in drinking water at 5-7 weeks in the late intervention study.
Efficacy renal endpoints included blood urea nitrogen (BUN), proteinuria (urine protein to creatinine ratio, or UP/C), glomerulosclerosis, tubulointerstitial fibrosis, leucocyte infiltration, and glomerular basement morphology (GBM) using transmission electron microscopy (TEM). Endpoints in the inner ear included auditory brain stem response (ABR) threshold as a measure of noise-induced hearing loss, strial capillary basement membrane thickness, and inner ear pathology by TEM.
In the late intervention study, wild-type or Alport mice (8 mice per group) were dosed for 14 days according to the same methods used in the early intervention study but beginning at 5 weeks of age, i.e., dosed with vehicle, 120 mg/kg of sparsentan, or 10 mg/kg losartan starting at 5 weeks of age for 14 days. In this study, untreated Alport mice at 5 weeks of age were also used as baseline controls.
For the pilot, early intervention, late intervention, and lifespan studies, spot urine was sampled pre-study and weekly during treatment and analyzed for protein (UP) and creatinine (C) to determine proteinuria (UP/C). At the end of each study the animals were euthanized, blood samples were taken, BUN was measured from serum, and kidneys were harvested for structural and immuno-fluorescent measurements. Glomerulosclerosis was assessed by immunofluorescence (IF) using an antibody to fibronectin (FN). Visual counting of the number of sclerotic glomeruli as a proportion of the total number of glomeruli per slide was used to calculate the percentage of sclerotic glomeruli. Sections were co-stained with an anti-CD45 antibody to indicate leucocyte infiltration. Tubulointerstitial fibrosis was determined by IF of kidney sections using an antibody to collagen 1 (COL1). Tubulointerstitial fibrosis (TIF) scoring was conducted by visual assessment of the COL1 positive area as a percentage of the total cortical area and was performed blinded. The fibrosis scoring (“Fibrosis Score”) was categorized according to visual judgment of percentage of total cortical area, as: 0=<5%, 1=5-10%, 2=10-25%, 3=25-50%, 4=50-75%, or 5=75-100%. Ultrastructural changes in GBM and podocyte morphology were observed using transmission electron microscopy (TEM).
For a baseline comparison for late intervention, glomerulosclerosis and fibrosis were determined in kidney samples taken from 5-week-old untreated Alport mice.

[2] = test system: autosomal Alport mice (COL4A3^−/−); assay: Lifespan study in Alport mice
Excerpt: as §1
In the lifespan study, Alport mice (n=10) were dosed using the same methodology as in the early intervention study, except that dosing was continued until mice had lost 10% of their peak body weight, after which they were euthanized.
For the pilot, early intervention, late intervention, and lifespan studies, spot urine was sampled pre-study and weekly during treatment and analyzed for protein (UP) and creatinine (C) to determine proteinuria (UP/C). At the end of each study the animals were euthanized, blood samples were taken, BUN was measured from serum, and kidneys were harvested for structural and immuno-fluorescent measurements. Glomerulosclerosis was assessed by immunofluorescence (IF) using an antibody to fibronectin (FN). Visual counting of the number of sclerotic glomeruli as a proportion of the total number of glomeruli per slide was used to calculate the percentage of sclerotic glomeruli. Sections were co-stained with an anti-CD45 antibody to indicate leucocyte infiltration. Tubulointerstitial fibrosis was determined by IF of kidney sections using an antibody to collagen 1 (COL1). Tubulointerstitial fibrosis (TIF) scoring was conducted by visual assessment of the COL1 positive area as a percentage of the total cortical area and was performed blinded. […]

[3] = test system: laminin α2 in stria of Alport mice; assay: Immunofluorescence of laminin α2 in stria of Alport mice; conditions: Alport mice, sparsentan 200 mg/kg from 3-7 weeks of age (pilot study)
Experimental: In the pilot study, designed to determine an optimal efficacious dose of sparsentan, Alport mice (3-4 per group) were dosed with vehicle (0.5% methylcellulose 4000 cps/0.25% Tween® 80 in distilled water) or sparsentan at 60 mg/kg or 200 mg/kg from 3 to 7 weeks of age for 28 days. Although 200 mg/kg sparsentan was efficacious in the pilot study, BUN levels were higher than those of Alport mice dosed with 60 mg/kg sparsentan (Table 1; FIG. 2A; FIG. 2B). This observation led to the selection of a 120 mg/kg dose of sparsentan to take forward into the early intervention study. During the pilot study, blood pressure (BP) was measured weekly using the CODA2 tail cuff system. […]
For the hearing study, wild-type or Alport mice were treated according to daily from 3-8.5 weeks of age by oral gavage with vehicle (0.5% methylcellulose 4000 cps/0.25% Tween® 80 in distilled water) or 120 mg/kg sparsentan or losartan at 20 mg/kg by oral gavage from 3-4 weeks of age (during weaning) and 10 mg/kg in drinking water from 4-7 weeks of age (n=5). The progression of Alport disease was assessed at 7 weeks of age by the amount of proteinuria (via urinalysis reagent strips—data not shown). […] Hearing ability and sensitivity to noise were assessed between 7 and 8 weeks of age by Auditory Brainstem Response (ABR), pre-noise exposure. […]

[4] = Alport mice late intervention, sparsentan 120 mg/kg, mean ± SD

Compound: CCCCC1=NC2(CCCC2)C(=O)N1Cc1ccc(-c2ccccc2S(=O)(=O)Nc2noc(C)c2C)c(COCC)c1 [sparsentan]
- UP/C ([1]; Alport mice late intervention, sparsentan 120 mg/kg for 14 days from 5 wk of age, mean ± SD, n = 8): 16.8 ± 2.8 mg/mg
- BUN [1, 4]: 16.2 ± 2.4 mg/dL
- GS (% Sclerotic glomeruli) [1, 4]: 8.3 ± 9.2 %
- TIF ([1]; Alport mice late intervention, sparsentan 120 mg/kg, tubulointerstitial fibrosis score, mean ± SD): 0.8 ± 0.7
- Nephroprotection in AP mice ([1]; late intervention, to a greater extent than in the losartan-treated group): significant nephroprotection
- Development of fibrosis, CD45^+ leucocyte infiltration, and glomerulosclerosis ([1]; sparsentan 120 mg/kg or losartan 10 mg/kg, 5-7 weeks of age): prevented; also recorded: attenuated
- UP/C, BUN, glomerulosclerosis, and fibrosis vs. vehicle-treated Alport mice ([1]; sparsentan 120 mg/kg, late intervention, P<0.05): significantly lower
- Lifespan compared to vehicle-treated Alport mice ([2]; dosing as in early intervention study, continued until 10% loss of peak body weight, P<0.05): significantly longer; also recorded: significantly greater
- Median lifespan ([2]; sparsentan compared with losartan): the same as losartan
- Accumulation of laminin α2 in stria [3]: prevented
